# Measurements published in PubChem BioAssay (NCI).
#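 Dose response: 5 concentrations. Exposure: 48 h. Format: 96-well plates. Endpoint: linear interpolation; highest concentration if not reached. GI50 = concentration required for 50% inhibition of growth. TGI: total growth inhibition.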
# Columns and labels:
# Test in all cases: NCI anticancer screen, dose series, 48 h
# CAKI-1 renal = tested on: CAKI-1 renal
# DLD-1 colon = tested on: DLD-1 colon
# KM20L2 colon = tested on: KM20L2 colon
# M14 melanoma = tested on: M14 melanoma
# OVCAR-5 ovarian = tested on: OVCAR-5 ovarian
# SF-539 CNS = tested on: SF-539 CNS
# SK-MEL-2 melanoma = tested on: SK-MEL-2 melanoma
# SNB-19 CNS = tested on: SNB-19 CNS
# SNB-78 CNS = tested on: SNB-78 CNS
# DMS 114 small cell lung = tested on: DMS 114 small cell lung
# LOX IMVI melanoma = tested on: LOX IMVI melanoma
# HOP-18 NSCLC = tested on: HOP-18 NSCLC
SMILES,TGI (CAKI-1 renal) [µM],TGI (DLD-1 colon) [µM],TGI (KM20L2 colon) [µM],TGI (M14 melanoma) [µM],TGI (OVCAR-5 ovarian) [µM],TGI (SF-539 CNS) [µM],TGI (SK-MEL-2 melanoma) [µM],TGI (SNB-19 CNS) [µM],TGI (SNB-78 CNS) [µM],TGI (DMS 114 small cell lung) [µM],TGI (LOX IMVI melanoma) [µM],TGI (HOP-18 NSCLC) [µM],GI50 (CAKI-1 renal) [µM],GI50 (LOX IMVI melanoma) [µM],GI50 (M14 melanoma) [µM],GI50 (OVCAR-5 ovarian) [µM],GI50 (SF-539 CNS) [µM],GI50 (SK-MEL-2 melanoma) [µM],GI50 (SNB-19 CNS) [µM]
O=C(N/C(=C\c1cccc([N+](=O)[O-])c1)c1nc2ccc([N+](=O)[O-])cc2[nH]1)c1ccccc1,> 100,> 100,> 100,> 100,> 100,> 100,61,> 100,> 100,–,–,–,–,–,–,–,–,–,–
CCc1ccccc1NC(=O)C1=C(C)NC(C)=C(C(=O)Nc2ccccc2CC)C1c1ccc2c(c1)OCO2,88.5,> 100,–,> 100,82.9,45.8,53.1,> 100,> 100,> 100,88.7,–,–,–,–,–,–,–,–
CC1CN1C(=O)NCCCCCCNC(=O)N1CC1C (stereo not given),> 100,> 100,> 100,> 100,> 100,98.2,> 100,> 100,–,98.3,> 60.3,> 100,–,–,–,–,–,–,–
COc1cc(Nc2nc3ccccc3nc2-c2cccs2)cc(OC)c1OC,–,> 100,> 100,–,> 100,> 100,> 100,> 100,> 100,–,> 100,> 100,–,–,–,–,–,–,–
C[C@@H]1OC(=O)N2CCCC(=C3SCCCS3)C12 (stereo not given in full),–,–,> 100,> 100,> 100,> 100,> 100,> 100,> 100,> 100,> 100,> 100,–,–,–,–,–,–,–
CCN(CC)C(c1ccc(N(C)C)cc1)C(c1ccc(N(C)C)cc1)N(CC)CC (stereo not given),> 73,–,> 73,> 73,> 73,> 73,> 73,> 73,> 73,40.6,–,–,–,–,–,–,–,–,–
Cc1cc(Cl)cc2c1NC(=O)C2(O)CC(=O)c1ccco1 (stereo not given),> 100,> 100,–,> 100,> 100,> 100,> 100,> 100,> 100,> 100,> 69.8,> 100,–,–,–,–,–,–,–
Nc1cccc(S(=O)(=O)NCC(=O)O)c1,> 100,> 100,> 100,> 100,> 100,> 100,> 100,> 100,> 100,> 100,> 100,> 100,–,–,–,–,–,–,–
NC1=NC(c2ccccc2)CC(c2cc(Cl)ccc2O)=N1 (stereo not given),30.1,25.9,31.8,30.5,34.6,28.5,–,30.7,42.1,25.6,29.5,35.6,–,–,–,–,–,–,–
CC(C)(C)c1cc(CCC(=O)Nc2ccc(Cl)cc2)nc(NC#N)n1,> 100,> 100,> 100,> 100,> 100,> 100,> 100,> 100,> 100,–,> 100,> 100,–,–,–,–,–,–,–
O=C(CC1(O)C(=O)Nc2ccccc21)c1ccncc1 (stereo not given),> 100,> 100,> 100,> 100,> 100,> 100,> 100,> 100,> 100,> 100,> 100,–,–,–,–,–,–,–,–
COc1ccc2nc3c(C(=O)NCCN(C)C)cccc3nc2c1,> 100,> 1,–,19.5,81.3,10.9,21.8,37.9,72,20.2,17.9,> 100,–,–,–,–,–,–,–
COC1(OC)CC2OC1C1N=NN(C(=O)OC(C)(C)C)C21 (stereo not given),> 100,> 100,> 100,> 100,> 100,> 100,> 100,–,> 100,> 100,> 100,> 100,–,–,–,–,–,–,–
Cc1cc(N(CCC#N)CCC#N)ccc1/C=C1\N=C(c2cc([N+](=O)[O-])ccc2Cl)N(c2cccc(Cl)c2)C1=O,> 100,> 100,> 100,> 100,> 100,> 100,> 100,> 100,> 100,> 100,–,> 100,–,–,–,–,–,–,–
O=C(CCc1cc(-c2ccccc2)nc(=S)[nH]1)N(Cc1ccccc1)Cc1ccccc1,> 100,> 100,> 100,> 100,> 100,> 100,> 100,> 100,> 100,> 100,> 100,> 100,–,–,–,–,–,–,–
O=[N+]([O-])c1ccc(C=NC2CCCCC2)cc1,> 100,> 100,> 100,> 100,> 100,> 100,> 100,> 100,> 100,> 100,> 100,> 100,–,–,–,–,–,–,–
NC12CC3CC(C1)CC(C(=O)O)(C3)C2,> 100,> 100,> 100,> 100,> 100,> 100,–,> 100,> 100,> 100,> 100,> 100,–,–,–,–,–,–,–
COc1ccc2c(c1)[n+](=O)c(C(=O)C/C(=N/OCCCc1ccccc1)C(=O)NC13CC4CC(CC(C4)C1)C3)c(C)n2[O-],> 100,> 100,> 100,> 100,> 100,> 100,> 100,> 100,> 100,> 100,> 100,> 100,–,–,–,–,–,–,–
O=C(O)CCSC(=O)Nc1ccc([N+](=O)[O-])cc1,> 100,> 100,–,> 100,–,> 100,> 100,> 100,> 100,> 100,> 100,–,–,–,–,–,–,–,–
NC(=O)COC(=O)c1c(Cl)nc2sccn12,> 100,> 100,> 100,> 100,> 100,> 100,> 100,> 100,> 100,> 83.8,> 100,> 100,–,–,–,–,–,–,–

SMILES,TGI (CAKI-1 renal) [µM],TGI (DLD-1 colon) [µM],TGI (KM20L2 colon) [µM],TGI (M14 melanoma) [µM],TGI (OVCAR-5 ovarian) [µM],TGI (SF-539 CNS) [µM],TGI (SK-MEL-2 melanoma) [µM],TGI (SNB-19 CNS) [µM],TGI (SNB-78 CNS) [µM],TGI (DMS 114 small cell lung) [µM],TGI (LOX IMVI melanoma) [µM],TGI (HOP-18 NSCLC) [µM],GI50 (CAKI-1 renal) [µM],GI50 (LOX IMVI melanoma) [µM],GI50 (M14 melanoma) [µM],GI50 (OVCAR-5 ovarian) [µM],GI50 (SF-539 CNS) [µM],GI50 (SK-MEL-2 melanoma) [µM],GI50 (SNB-19 CNS) [µM]
N#C/C(=C\c1ccc2ccccc2c1)c1ccccc1,50,> 100,34.9,65.6,> 100,36.8,85,–,84.7,–,> 100,> 100,–,–,–,–,–,–,–
O=C(O)CCNC1CCCCC1,> 100,–,–,> 100,> 100,> 100,> 100,> 100,–,–,> 100,–,> 100,> 100,> 100,> 100,> 100,> 100,> 100
CCCn1c(=S)sc2c1nc(C)n1c(Nc3ccccc3)nnc21,62.4,–,–,44,> 100,30.3,53.1,> 100,–,–,> 100,–,6.05,3.67,4.72,21,7.45,4.64,3.94
O=C1c2ccccc2C(=O)N1CCc1ncc[nH]1,> 100,–,–,> 100,> 100,> 100,> 100,> 100,–,–,> 100,–,–,–,–,–,–,–,–
CC(=O)OCC1OC(NC(=S)N/N=C2\CC(c3ccccc3)Oc3ccccc32)C(OC(C)=O)C(OC(C)=O)C1OC(C)=O (stereo not given),> 100,> 100,> 100,> 100,> 100,> 100,–,> 100,> 100,> 100,> 100,> 100,–,–,–,–,–,–,–
COc1cc2ncn(-c3cc(OCc4cccs4)c(C(N)=O)s3)c2cc1OC,> 25,–,–,> 17.3,> 25,> 16.8,17,> 25,–,–,> 19.2,–,8.49,1.19,1.82,2.55,1.23,2.08,3.25
O=C(O)C(=Cc1ccc(-c2ccccc2)cc1)C(=O)O,30,–,–,29.5,> 55.6,19.3,16.6,37.9,–,–,25.9,–,–,–,–,–,–,–,–
COc1ccc(NC(=O)CC(=O)N/N=C/c2ccc(N(CCC#N)S(C)(=O)=O)cc2)cc1,> 100,> 100,> 100,> 100,> 100,> 100,> 100,–,> 100,> 100,> 100,> 100,–,–,–,–,–,–,–
COc1cc[nH]c1/C=C1\C(=O)Nc2ccc(F)c(C#CC3(O)CCNCC3)c21,0.472,–,–,0.684,2.37,0.426,0.464,2.15,–,–,0.568,–,0.0181,0.0645,0.0413,0.275,0.106,0.00988,0.564
CCN(CC)CCCC(C)Nc1c2ccc(Cl)cc2nc2ccc(O)cc12 (stereo not given),6.1,–,–,2.99,7.78,3.14,19.9,16.3,–,–,3.22,–,2.25,1.6,1.56,2.21,1.63,4.78,3.37
COc1cc(C(=O)CBr)c(OC)cc1C,> 100,–,–,> 100,> 100,> 100,> 100,> 100,–,–,> 100,–,–,–,–,–,–,–,–
CC(C)(CO)N1CCN(C(=S)Nc2ccccc2)CC1,> 100,–,–,> 100,> 100,> 100,> 100,> 100,–,–,> 100,–,–,–,–,–,–,–,–
CC/C=C\C[C@@H](O)C/C=C1/C(=O)C=C[C@H]1C/C=C\CCCC(=O)OC,13.5,–,–,8.38,12.1,11.9,21.6,19.4,–,–,1.51,–,3.57,0.329,2.39,3.35,3.22,6.99,4.62
Cc1cc2c(cc1Cl)SC1=NN(C)S(=O)N1S2(=O)=O (stereo not given),> 100,–,–,> 100,> 100,> 100,> 100,> 100,–,–,> 100,–,> 100,> 100,> 100,> 100,> 100,> 100,> 100
Cc1ccc(-c2nc3nc(-c4ccccc4)nc(N4CCCNCC4)c3o2)cc1,3.22,–,–,3.69,3.37,3.31,3.84,3.11,–,–,3.29,–,1.73,1.76,1.96,1.89,1.82,2.11,1.63
C[N+]1=C(/C=C/c2ccc(O)c3ncccc23)C(C)(C)c2ccccc21,3.83,–,–,7.7,12.6,10.3,24,14.4,–,–,5.74,–,1.11,2.32,2.53,2.42,2.55,3.88,3.74
O=C(O)C(CS)Nc1c2ccccc2nc2ccccc12 (stereo not given),> 100,> 100,> 100,> 100,> 100,> 100,> 100,> 100,–,> 100,> 100,–,–,–,–,–,–,–,–
O=C(O)c1nn(-c2ccccc2-c2n[nH]c(=O)[nH]c2=O)c(=O)[nH]c1=O,> 100,–,–,> 100,> 100,> 100,> 100,> 100,–,–,> 100,–,–,–,–,–,–,–,–
CCCC1N2CCCCC2[C@@H]2c3[nH]c4ccccc4c3CCN12 (stereo not given in full),> 100,> 100,> 100,> 100,> 100,> 100,> 100,> 100,> 100,> 100,–,> 100,–,–,–,–,–,–,–
O=C(CC1(O)C(=O)Nc2c(Cl)ccc(Cl)c21)c1ccc(F)cc1 (stereo not given),> 100,> 100,> 100,> 100,> 100,–,> 100,> 100,> 100,52.1,> 100,> 100,–,–,–,–,–,–,–
